This is an account of results in patent US20250155433A1, “FLUORESCENT SENSORS FOR DETECTION OF SIDEROPHORES AND OTHER MOLECULES PRODUCED BY BACTERIAL PATHOGENS” (Kansas State University Research Foundation, priority 2021, published 2025).

In one experiment the target is T1, EcoIutA (Escherichia coli, UniProt P14542, T573C).
T1 construct: expressed in transfected cells; host or cells: E. coli OKN3/OKN13/OKN359/OKN1359 carrying a pITS23 derivative
The experiment can be described thus: Fluorescence quenching binding to EcoIutA-FM sensor. Particulars: for Binding by IutA: other ferric hydroxamates. The protocol: (§1) Fluorescence modifications. For modifications with maleimide fluorophores, we inoculated E. coli strains OKN3, OKN13, OKN359 or OKN1359, harboring plasmids that encoded a Cys mutant LGP, from frozen stocks into LB, grew them overnight and sub-cultured at 1% into iron-deficient MOPS minimal media, with shaking (200 rpm) at 37° C. for 10-12 h, until late exponential phase. After collecting the cells by centrifugation at 7500×g for 15 min, and washing with 50 mM NaHPO4, pH 6.7, we labeled the Cys-mutant LGP with 5 μM FM in 50 mM NaHPO4, pH 6.7 for 15 min at 37° C. FM. We terminated the labeling reactions with 100 μM β-mercaptoethanol. After collecting the fluoresceinated cells by centrifugation at 7500×g for 15 min, and washing with 50 mM NaHPO4, pH 6.7, we re-suspended them in PBS plus 0.2% glucose. We either immediately used the labeled cells in spectroscopic experiments, or rested them on ice (up to 24 h), or added glycerol to 15% and stored them (indefinitely) as 1 mL aliquots at −70° C. In the latter case, after thawing the labeled cells we pelleted them by centrifugation in a microfuge, washed them once with and re-suspended them in PBS containing 0.2% glucose. Lastly, for evaluation of protein expression or the extent of FM-labeling we solubilized aliquots of the cell suspensions with sample buffer, and subjected them to SDS-PAGE. After electrophoresis, we first visualized the fluorescence labeling on a Typhoon 8600 Biomolecular Scanner (GE/Amersham), and then stained the gels with Coomassie blue R (153).
(§2) Fluorescence spectroscopic binding determinations. We observed fluorophore-labeled cells in an SLM AMINCO 8100 fluorescence spectrometer, upgraded with an OLIS operating system and software (OLIS SpectralWorks, OLIS Inc., Bogart, GA), to control its shutters, polarizers and data collection. We also utilized an OLIS Clarity fluorescence spectrometer for fluorescence assays. For binding determinations we deposited 2.5×10^7 labeled cells in a quartz cuvette (final volume, 2 mL) with stirring at 37° C., measured the initial fluorescence (F0), and then added increasing concentrations of an iron complex while monitoring the quenching of fluorescence emissions (F) at 520 nm. We performed each measurement in triplicate and calculated the mean value of F/F0 at each ligand concentration. We plotted 1−F/F0 vs [ligand] and analyzed the data by the 1-site binding model of Grafit 6.0.12 (Erithacus Ltd. West Sussex, UK), that fits data to a single site saturation curve, where the amount of ligand bound is plotted as a function of the amount free: […]
(§3) Table 1 lists KD values from analysis of fluorescence quenching with ferric or apo (parenthetic values) siderophores or porphyrins. […]

The next experiment deals with EcoFhuA (Escherichia coli, UniProt P06971). The experiment in a line: Fluorescence quenching binding to EcoFhuA-FM sensor. Particulars: read-out: Affinity (KD) of sensor EcoFhuA; ferric complexes; Cys residue D396C, FM-labeled; NB = no binding. The protocol: as §1, §2, §3
The target in experiment [1] is T2, HsaSCN (human siderocalin) (Homo sapiens, UniProt P80188, Q148C).
T2 construct: adds a 6H-tag at either the N- or C-termini of the mature proteins; 6-His (N); made in house; host or cells: E. coli BL21 (pET28), IPTG-induced; purified on Talon Superflow
The experiment can be described thus: Fluorescence quenching binding to purified HsaSCN-FM sensor. Particulars: read-out: KD, HsaSCN-FM.

A further experiment has as its system CRE/ESKAPE pathogens. The experiment can be described thus: Decoy sensor measurements of metal complex uptake by bacteria. Format: cell-based. Particulars: decoy sensors in TonB-deficient E. coli, 37° C., strains grown in iron-deficient MOPS. The text has this:
Fluorescence spectroscopic uptake measurements. We employed FD sensors to monitor TonB-dependent uptake of various siderophores by bacterial pathogens. In the fluorescence spectroscopic uptake studies E. coli OKN13 (ΔtonB, ΔfepA) or OKN1359 (ΔtonB, Δfiu, ΔfepA, Δcir) were host strains for pITS23 derivatives carrying single Cys mutants of an LGP of interest. The FLGP were decoy sensors that monitored ferric siderophore uptake by test strains. For each assay we used 10^7 sensor cells (e.g., OKN13/pFepA-FM (53)) in a 2 mL quartz cuvette containing PBS+0.2% glucose at 37° C. After recording fluorescence intensity for 100 seconds, we added an iron complex (e.g., FeEnt) at a final concentration of ˜10 nM. After incubating the sample for 100 seconds, during which time fluorescence was quenched (e.g., ˜60% quenching for EcoFepA_A698C-FM), we added 0.5-2×10^7 cells of the test strain (E. coli MG1655, K. pneumoniae Kp52.145, A. baumannii 17978, P. aeruginosa PA01, E. cloacae) and monitored the time-course of fluorescence emissions at 520 nm for 15-40 minutes, with stirring.

The next experiment concerns the target AbaBauA (Acinetobacter baumannii, UniProt Q76HJ9, S407C). The experiment in a line: Fluorescence quenching binding to AbaBauA-FM sensor. Particulars: read-out: Affinity (KD) of sensor AbaBauA; ferric complexes; Cys residue S385C, FM-labeled; NB = no binding. The protocol: (§4) Fluorescence modifications. For modifications with maleimide fluorophores, we inoculated E. coli strains OKN3, OKN13, OKN359 or OKN1359, harboring plasmids that encoded a Cys mutant LGP, from frozen stocks into LB, grew them overnight and sub-cultured at 1% into iron-deficient MOPS minimal media, with shaking (200 rpm) at 37° C. for 10-12 h, until late exponential phase. After collecting the cells by centrifugation at 7500×g for 15 min, and washing with 50 mM NaHPO4, pH 6.7, we labeled the Cys-mutant LGP with 5 μM FM in 50 mM NaHPO4, pH 6.7 for 15 min at 37° C. FM. We terminated the labeling reactions with 100 μM β-mercaptoethanol. […] After electrophoresis, we first visualized the fluorescence labeling on a Typhoon 8600 Biomolecular Scanner (GE/Amersham), and then stained the gels with Coomassie blue R (153).
(§5) Fluorescence spectroscopic binding determinations. We observed fluorophore-labeled cells in an SLM AMINCO 8100 fluorescence spectrometer, upgraded with an OLIS operating system and software (OLIS SpectralWorks, OLIS Inc., Bogart, GA), to control its shutters, polarizers and data collection. We also utilized an OLIS Clarity fluorescence spectrometer for fluorescence assays. […] We performed each measurement in triplicate and calculated the mean value of F/F0 at each ligand concentration. […]

Another experiment concerns the target AbaPiuA (Acinetobacter baumannii, UniProt D0CAH3, S724C). The experiment can be described thus: Fluorescence quenching binding to AbaPiuA-FM sensor. The protocol: as §1, with “In the latter case, after thawing the labeled cells we pelleted them by centrifugation in a microfuge, washed them once with and re-suspended them in PBS containing 0.2% glucose. Lastly, for evaluation of protein expression or the extent of FM-labeling we solubilized aliquots of the cell suspensions with sample buffer, and subjected them to SDS-PAGE.” left out
as §2, with “concentration.” for “concentration. We plotted 1−F/F0 vs [ligand] and analyzed the data by the 1-site binding model of Grafit 6.0.12 (Erithacus Ltd. West Sussex, UK), that fits data to a single site saturation curve, where the amount of ligand bound is plotted as a function of the amount free:”
as §3

The target in a further experiment is KpnFepA2380. The experiment can be described thus: Fluorescence quenching binding to KpnFepA2380-FM sensor. Particulars: ferric complexes; Cys residue T255C, FM-labeled; NB = no binding; read-out: Affinity (KD) of sensor KpnFepA 2380. Also noted: species or system Klebsiella pneumoniae. The protocol:
as §4, §5

Another experiment concerns the target T3, EcoFiu (Escherichia coli, UniProt P75780, A694C).
T3 construct: expressed in transfected cells; host or cells: E. coli OKN3/OKN13/OKN359/OKN1359 carrying a pITS23 derivative
The experiment in a line: biochemical. Format: binding. The protocol: as §1
Fluorescence spectroscopic binding determinations. We observed fluorophore-labeled cells in an SLM AMINCO 8100 fluorescence spectrometer, upgraded with an OLIS operating system and software (OLIS SpectralWorks, OLIS Inc., Bogart, GA), to control its shutters, polarizers and data collection. We also utilized an OLIS Clarity fluorescence spectrometer for fluorescence assays. For binding determinations we deposited 2.5×10^7 labeled cells in a quartz cuvette (final volume, 2 mL) with stirring at 37° C., measured the initial fluorescence (F0), and then added increasing concentrations of an iron complex while monitoring the quenching of fluorescence emissions (F) at 520 nm. We performed each measurement in triplicate and calculated the mean value of F/F0 at each ligand concentration. We plotted 1−F/F0 vs [ligand] and analyzed the data by the 1-site binding model of Grafit 6.0.12 (Erithacus Ltd. West Sussex, UK), that fits data to a single site saturation curve, where the amount of ligand bound is plotted as a function of the amount free:
These plots yielded KD values for each of the receptor-ligand interactions, with associated standard errors.
Table 1 lists KD values from analysis of fluorescence quenching with ferric or apo (parenthetic values) siderophores or porphyrins. For each determination, we measured the extent of fluorescence quenching of an FLGP, when exposed to sequentially increasing concentrations of the listed metal complexes, as plotted in FIGS. 2-4. We performed each experiment 2 or 3 times. The tabulated KD values are from single, representative experiments, in which we collected each data point in triplicate, plotted F/F0 vs [ligand] for each quenching titration, and fitted the curves to a single site binding model using Grafit 6.012 (Erithacus Ltd, […], UK).

For another experiment, the target named is T4, PaeFpvA (Pseudomonas aeruginosa, UniProt P48632, T660C).
T4 construct: expressed in transfected cells; host or cells: E. coli OKN3/OKN13/OKN359/OKN1359 carrying a pITS23 derivative
The experiment in a line: Fluorescence quenching binding to PaeFpvA-FM sensor. Particulars: secondary ligands. The protocol: as §4, §5

Where a SMILES comes first, the peptide text is derived from it. [ ]: non-standard residue; d: D form. Orn(N5-OH,N5-Ac) = CC(=O)N(O)CCC[C@H](N)C(=O)O

With `CC(=O)N(O)CCCC[C@H](NC(=O)CC(O)(CC(=O)N[C@@H](CCCCN(O)C(C)=O)C(=O)O)C(=O)O)C(=O)O` [Abn, aerobactin], at EcoIutA, the dissociation constant Kd (usually the constant that tells how readily two partners part at equilibrium) stood at 1400 nM.
For `CC(=O)N(O)CCC[C@@H]1NC(=O)CNC(=O)CNC(=O)CNC(=O)[C@H](CCCN(O)C(C)=O)NC(=O)[C@H](CCCN(O)C(C)=O)NC1=O.[Fe+3]` [Fc, ferrichrome] (cyclo(GGG[Orn(N5-OH,N5-Ac)][Orn(N5-OH,N5-Ac)][Orn(N5-OH,N5-Ac)])), at EcoIutA, the “Binding by IutA” value is on record as “did not measurably bind”. The figures for the Kd (on EcoFhuA; in experiment [1]) were 3 nM and 110 nM, respectively.
Take `C/C(=C\C(=O)N(O)CCC[C@@H]1NC(=O)CNC(=O)[C@H](CO)NC(=O)[C@H](CO)NC(=O)[C@H](CCCN(O)C(=O)/C=C(\C)CC(=O)O)NC(=O)[C@H](CCCN(O)C(=O)/C=C(\C)CC(=O)O)NC1=O)CC(=O)O.[Fe+3]` [FcA]: on EcoIutA, the “Binding by IutA” value is given as “did not measurably bind”. On EcoFhuA, the Kd came to 60 nM.
Consider `CC(=O)N([O-])CCCC[C@H](NC(=O)CC(O)(CC(=O)N[C@@H](CCCCN([O-])C(C)=O)C(=O)O)C(=O)[O-])C(=O)O.[Fe+3]` [FeAbn, ferric aerobactin], for which the “TonB-dependent uptake by test strains” value with CRE/ESKAPE pathogens is “uptake of FeAbn by all the strains except A. baumannii”.
On to `O=C([C@@H]1CSC(c2cccc(O)c2O)=N1)N(O)CCc1c[nH]cn1.[Fe+3]` [FeAgn], for which the Kd on AbaBauA stood at 1100 nM; in [1], 160 nM.
On to `O=C(N[C@@H](CO)C(=O)O)c1cccc(O)c1O.[Fe+3]` [FeDHBS], for which the “Binding by AbaPiuA” value at AbaPiuA was “did not bind”.
On to `O=C(O)c1cccc(O)c1O.[Fe+3]` [FeDHB], for which, on KpnFepA2380, the Kd amounted to 22000 nM. The “Binding by EcoFiu” value at EcoFiu is given as “did not bind”. Moreover, the “Binding by PaeFpvA” value at PaeFpvA is on record as “weakly bound”.
